Square brackets hold non-standard residues; d marks the D form. Peptide text beside a SMILES is read from it. 4Pal = N[C@@H](Cc1ccncc1)C(=O)O; Cha = N[C@@H](CC1CCCCC1)C(=O)O; Aib = CC(C)(N)C(=O)O
Columns and labels:
Mus musculus [1] = assay: Anorectic activity in C57BL/6J mouse assessed as inhibition of food intake at 0.03 mg/kg/day, sc for 3 days dosed as continuous administration by infusion using osmotic pump; format: functional; details: 72 h
[2] = target: T1, Neuropeptide Y receptor type 2 (Homo sapiens, UniProt P49146); assay: Agonist activity at human neuropeptide Y2 receptor expressed in CHO cell membranes assessed as stimulation of [35S]GTPgammaS binding incubated for 120 mins by liquid scintillation counting method; format: functional
T1 sequence (P49146 whole entry): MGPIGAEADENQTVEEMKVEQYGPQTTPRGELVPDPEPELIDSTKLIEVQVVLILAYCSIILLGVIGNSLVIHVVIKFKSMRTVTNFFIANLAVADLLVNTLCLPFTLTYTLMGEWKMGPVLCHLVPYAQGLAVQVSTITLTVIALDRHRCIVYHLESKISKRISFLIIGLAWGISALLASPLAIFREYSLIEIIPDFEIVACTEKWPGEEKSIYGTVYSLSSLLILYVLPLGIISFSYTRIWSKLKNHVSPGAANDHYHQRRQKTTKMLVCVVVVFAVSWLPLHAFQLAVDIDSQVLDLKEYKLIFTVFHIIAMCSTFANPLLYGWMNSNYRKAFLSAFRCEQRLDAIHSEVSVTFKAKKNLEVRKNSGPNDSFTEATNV

Mus musculus [3] = assay: Anorectic activity in C57BL/6J mouse assessed as inhibition of food intake at 0.3 mg/kg/day, sc dosed as […] and measured after 24 hrs; format: functional
[4] = target: T1, Neuropeptide Y receptor type 2; assay: Displacement of [125I]-PYY from human neuropeptide Y2 receptor expressed in CHO cell membranes incubated for 60 mins by TopCount based method
Mus musculus [5] = assay: Anorectic activity in C57BL/6J mouse assessed as inhibition of food intake at 0.3 mg/kg/day, sc dosed as […] and measured after 12 hrs; format: functional
Mus musculus [6] = assay: Anorectic activity in C57BL/6J mouse assessed as inhibition of food intake at 1 mg/kg/day, sc for 3 days dosed as continuous administration by infusion using osmotic pump; format: functional; details: 72 h
Mus musculus [7] = assay: Anorectic activity in C57BL/6J mouse assessed as inhibition of food intake at 0.1 mg/kg/day, sc for 3 days dosed as continuous administration by infusion using osmotic pump; format: functional; details: 72 h
Mus musculus [8] = assay: Drug level in C57BL/6J mouse at 1 mg/kg, iv measured during 5 mins to 24 hrs by LC/MS/MS method; format: ADME, organism-based; details: in vivo, read-out: Drug uptake
Mus musculus [9] = assay: Anorectic activity in C57BL/6J mouse assessed as inhibition of food intake at 0.3 mg/kg/day, sc for 3 days dosed as continuous administration by infusion using osmotic pump; format: functional; details: 72 h

SMILES | inhibition in vivo at 0.03 mg/kg/day (Mus musculus [1]) [%] | EC50 [2] [nM] | inhibition in vivo at 0.3 mg/kg/day (Mus musculus [3]) [%] | IC50 [4] [nM] | inhibition in vivo at 0.3 mg/kg/day (Mus musculus [5]) [%] | inhibition in vivo at 1 mg/kg/day (Mus musculus [6]) [%] | inhibition in vivo at 0.1 mg/kg/day (Mus musculus [7]) [%] | concentration (Mus musculus [8]) [nM] | inhibition in vivo at 0.3 mg/kg/day (Mus musculus [9]) [%]
CC[C@](C)(NC(=O)[C@H](CC1CCCCC1)NC(=O)[C@H](Cc1ccncc1)NC(=O)[C@](C)(CC)NC(=O)[C@H]1CCCN1C(=O)[C@H](CO)NC(C)=O)C(=O)N[C@@H](CC(N)=O)C(=O)N[C@@H](CCCCN)C(=O)NC(C)(C)C(=O)N[C@H](C(=O)N[C@@H](CCCNC(=N)N)C(=O)N[C@@H](CCC(N)=O)C(=O)N[C@@H](CCCNC(=N)N)C(=O)N[C@@H](CC1CCCCC1)C(N)=O)[C@@H](C)O | 36 | 0.16 | 16 | 0.57 | 23 |  |  |  | 
CC(=O)N[C@@H](CO)C(=O)N1CCC[C@@H]1C(=O)N[C@@H](CCCNC(=N)N)C(=O)N[C@@H](Cc1cnc[nH]1)C(=O)N[C@@H](CC1CCCCC1)C(=O)N[C@@H](CC1CCCCC1)C(=O)N[C@@H](CC(N)=O)C(=O)N[C@@H](CC(C)C)C(=O)NC(C)(C)C(=O)N[C@H](C(=O)N[C@@H](CCCNC(=N)N)C(=O)N[C@@H](CCC(N)=O)C(=O)N[C@@H](CCCNC(=N)N)C(=O)N[C@@H](CC1CCCCC1)C(N)=O)[C@@H](C)O (Ac-S[dP]RH[Cha][Cha]NL[Aib]TRQR[Cha]-NH2) |  |  |  |  |  | 33 |  |  | 
CC(=O)N[C@@H](CO)C(=O)N1CCC[C@@H]1C(=O)NC(C)(C)C(=O)N[C@@H](Cc1ccncc1)C(=O)N[C@@H](CC1CCCCC1)C(=O)NC(C)(C)C(=O)N[C@@H](CC(N)=O)C(=O)N[C@@H](CCCCN)C(=O)NC(C)(C)C(=O)N[C@H](C(=O)N[C@@H](CCCNC(=N)N)C(=O)N[C@@H](CCC(N)=O)C(=O)N[C@@H](CCCNC(=N)N)C(=O)N[C@@H](CC1CCCCC1)C(N)=O)[C@@H](C)O |  | 0.21 |  | 4.5 |  |  | 50 |  | 
CC(C)C[C@H](NC(=O)[C@H](CC(N)=O)NC(=O)[C@H](CC1CCCCC1)NC(=O)[C@H](CC1CCCCC1)NC(=O)[C@H](Cc1cnc[nH]1)NC(=O)[C@H](CCCNC(=N)N)NC(=O)[C@H]1CCCN1C(=O)[C@H](CO)NC(=O)C(C)C)C(=O)NC(C)(C)C(=O)N[C@H](C(=O)N[C@@H](CCCNC(=N)N)C(=O)N[C@@H](CCC(N)=O)C(=O)N[C@@H](CCCNC(=N)N)C(=O)N[C@@H](CC1CCCCC1)C(N)=O)[C@@H](C)O |  | 0.49 |  | 1.3 |  | 46 |  |  | 
CC(C)C[C@H](NC(=O)[C@H](CC(N)=O)NC(=O)[C@H](CC1CCCCC1)NC(=O)[C@H](CC1CCCCC1)NC(=O)[C@H](Cc1cnc[nH]1)NC(=O)[C@H](CCCNC(=N)N)NC(=O)[C@H]1CCCN1C(=O)[C@H](CO)NC(=O)CCC(=O)O)C(=O)NC(C)(C)C(=O)N[C@H](C(=O)N[C@@H](CCCNC(=N)N)C(=O)N[C@@H](CCC(N)=O)C(=O)N[C@@H](CCCNC(=N)N)C(=O)N[C@@H](CC1CCCCC1)C(N)=O)[C@@H](C)O |  | 0.4 |  | 2.3 |  | 103 |  |  | 
CC[C@](C)(NC(=O)[C@H](CC1CCCCC1)NC(=O)[C@H](Cc1ccncc1)NC(=O)[C@H](CCCNC(=N)N)NC(=O)[C@H]1CCCN1C(=O)[C@H](CO)NC(C)=O)C(=O)N[C@@H](CC(N)=O)C(=O)N[C@@H](CCCCN)C(=O)NC(C)(C)C(=O)N[C@H](C(=O)N[C@@H](CCCNC(=N)N)C(=O)N[C@@H](CCC(N)=O)C(=O)N[C@@H](CCCNC(=N)N)C(=O)N[C@@H](CC1CCCCC1)C(N)=O)[C@@H](C)O | 36 | 0.14 | 23 | 0.16 | 41 |  | 85 |  | 
CC(=O)N[C@@H](CO)C(=O)N1CCC[C@@H]1C(=O)N[C@@H](CCCNC(=N)N)C(=O)N[C@@H](Cc1ccncc1)C(=O)N[C@@H](CC1CCCCC1)C(=O)NC(C)(C)C(=O)N[C@@H](CC(N)=O)C(=O)N[C@@H](CCCCN)C(=O)NC(C)(C)C(=O)N[C@H](C(=O)N[C@@H](CCCNC(=N)N)C(=O)N[C@@H](CCC(N)=O)C(=O)N[C@@H](CCCNC(=N)N)C(=O)N[C@@H](CC1CCCCC1)C(N)=O)[C@@H](C)O | 38 |  | 15 |  | 35 |  | 80 | 1060 | 112
CC[C@@](C)(NC(=O)[C@H](CCCCN)NC(=O)[C@H](CC(N)=O)NC(=O)C(C)(C)NC(=O)[C@H](CC1CCCCC1)NC(=O)[C@H](Cc1ccncc1)NC(=O)[C@H](CCCNC(=N)N)NC(=O)[C@H]1CCCN1C(=O)[C@H](CO)NC(C)=O)C(=O)N[C@H](C(=O)N[C@@H](CCCNC(=N)N)C(=O)N[C@@H](CCC(N)=O)C(=O)N[C@@H](CCCNC(=N)N)C(=O)N[C@@H](CC1CCCCC1)C(N)=O)[C@@H](C)O | 34 | 0.11 |  | 0.27 |  |  | 86 |  | 
CC[C@](C)(NC(=O)[C@H]1CCCN1C(=O)[C@H](CO)NC(C)=O)C(=O)N[C@@H](Cc1cnc[nH]1)C(=O)N[C@@H](CC1CCCCC1)C(=O)N[C@@H](CC1CCCCC1)C(=O)N[C@@H](CC(N)=O)C(=O)N[C@@H](CC(C)C)C(=O)NC(C)(C)C(=O)N[C@H](C(=O)N[C@@H](CCCNC(=N)N)C(=O)N[C@@H](CCC(N)=O)C(=O)N[C@@H](CCCNC(=N)N)C(=O)N[C@@H](CC1CCCCC1)C(N)=O)[C@@H](C)O |  | 2 |  | 16 |  |  |  |  | 2
CC[C@@](C)(NC(=O)[C@H](CO)NC(C)=O)C(=O)N[C@@H](CCCNC(=N)N)C(=O)N[C@@H](Cc1ccncc1)C(=O)N[C@@H](CC1CCCCC1)C(=O)NC(C)(C)C(=O)N[C@@H](CC(N)=O)C(=O)N[C@@H](CCCCN)C(=O)NC(C)(C)C(=O)N[C@H](C(=O)N[C@@H](CCCNC(=N)N)C(=O)N[C@@H](CCC(N)=O)C(=O)N[C@@H](CCCNC(=N)N)C(=O)N[C@@H](CC1CCCCC1)C(N)=O)[C@@H](C)O | 25 | 0.11 |  | 0.3 |  |  | 64 |  | 
CC(=O)N[C@@H](CO)C(=O)NC(C)(C)C(=O)N[C@@H](CCCNC(=N)N)C(=O)N[C@@H](Cc1ccncc1)C(=O)N[C@@H](CC1CCCCC1)C(=O)NC(C)(C)C(=O)N[C@@H](CC(N)=O)C(=O)N[C@@H](CCCCN)C(=O)NC(C)(C)C(=O)N[C@H](C(=O)N[C@@H](CCCNC(=N)N)C(=O)N[C@@H](CCC(N)=O)C(=O)N[C@@H](CCCNC(=N)N)C(=O)N[C@@H](CC1CCCCC1)C(N)=O)[C@@H](C)O (Ac-S[Aib]R[4Pal][Cha][Aib]NK[Aib]TRQR[Cha]-NH2) | 36 | 0.13 |  | 0.41 |  |  | 95 |  | 
CC[C@@](C)(NC(=O)[C@H]1CCCN1C(=O)[C@H](CO)NC(C)=O)C(=O)N[C@@H](Cc1cnc[nH]1)C(=O)N[C@@H](CC1CCCCC1)C(=O)N[C@@H](CC1CCCCC1)C(=O)N[C@@H](CC(N)=O)C(=O)N[C@@H](CC(C)C)C(=O)NC(C)(C)C(=O)N[C@H](C(=O)N[C@@H](CCCNC(=N)N)C(=O)N[C@@H](CCC(N)=O)C(=O)N[C@@H](CCCNC(=N)N)C(=O)N[C@@H](CC1CCCCC1)C(N)=O)[C@@H](C)O |  | 0.5 |  | 3.8 |  |  |  |  | 33
CC(C)C[C@H](NC(=O)[C@H](CC(N)=O)NC(=O)[C@H](CC1CCCCC1)NC(=O)[C@H](CC1CCCCC1)NC(=O)[C@H](Cc1cnc[nH]1)NC(=O)[C@H](CCCNC(=N)N)NC(=O)[C@H]1CCCN1C(=O)[C@H](CO)NC(=O)c1ccccc1)C(=O)NC(C)(C)C(=O)N[C@H](C(=O)N[C@@H](CCCNC(=N)N)C(=O)N[C@@H](CCC(N)=O)C(=O)N[C@@H](CCCNC(=N)N)C(=O)N[C@@H](CC1CCCCC1)C(N)=O)[C@@H](C)O |  | 0.8 |  | 1.5 |  | 7 |  |  | 

— ChEMBL document CHEMBL4177573 (Bioorg Med Chem, 2017)
